Read-outs that look alike come from different tables or passages of the source. One block for each compound: values may come before it.
Key:
hM1 = molecular target: T1, hM1 (Homo sapiens, UniProt P11229); experiment: hM1 antagonist potency, calcium mobilization assay; assay type: cell-based; conditions: for % ACh activity remaining: at the highest concentration tested (30 μM)
T1 sequence (P11229 1-460): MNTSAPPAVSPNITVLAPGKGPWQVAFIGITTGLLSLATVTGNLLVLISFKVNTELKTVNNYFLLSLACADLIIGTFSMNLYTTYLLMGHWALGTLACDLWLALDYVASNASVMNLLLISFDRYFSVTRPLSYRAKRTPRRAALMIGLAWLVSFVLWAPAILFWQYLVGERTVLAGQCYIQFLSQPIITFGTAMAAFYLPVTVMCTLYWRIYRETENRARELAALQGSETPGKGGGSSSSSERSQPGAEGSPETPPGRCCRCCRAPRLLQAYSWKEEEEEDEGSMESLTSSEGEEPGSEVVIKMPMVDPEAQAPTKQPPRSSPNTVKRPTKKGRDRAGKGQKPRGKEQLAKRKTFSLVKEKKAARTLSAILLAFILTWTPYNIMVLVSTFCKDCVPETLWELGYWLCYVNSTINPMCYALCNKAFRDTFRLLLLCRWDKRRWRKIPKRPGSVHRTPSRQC

M1 mAChR = experiment: equilibrium radioligand binding, [3H]NMS competition; conditions: Figure 4A
M1 = molecular target: T2, M1 (Homo sapiens, UniProt P11229); assay type: cell-based; conditions: antagonism of ACh at M1; mean ± S.E.M. of three experiments in triplicate
T2 sequence (P11229 1-460): T1 sequence (P11229 1-460)

[1] = in vitro hepatic microsome intrinsic clearance; assay type: in vitro ADME, rat
rat (r) M1-5 receptors = experiment: calcium mobilization assay, rat M1-5 selectivity; assay type: cell-based; conditions: CRCs in the presence of an EC80 concentration of ACh; Figure 5
[2] = test system: contextual fear conditioning; conditions: at doses that reduced seizures; cited from earlier work
[3] = test system: pilocarpine-induced seizures; conditions: rodents; cited from earlier work

SMILES: O=C(C1CN(S(=O)(=O)c2cccc3nsnc23)C1)N1CCN(c2ccncc2)CC1 [2d]
fold less active / less potent than ML012 (hM1; hM1, relative to ML012): 3 fold

SMILES: O=C(C1CN(S(=O)(=O)c2cccc3nonc23)C1)N1CCN(c2ccccn2)CC1 [(1-(Benzo[c][1,2,5]oxadiazol-4-ylsulfonyl)azetidin-3-yl)(4-(pyridin-2-yl)piperazin-1-yl)methanone]
IC50 (hM1): 5000 nM

SMILES: Brc1ccc(N2CCNCC2)nc1 [(5-bromopyridin-2-yl)piperazine]
IC50 (hM1; read-out: hM1 IC50): 280 nM

SMILES: O=C(CCNS(=O)(=O)c1cccc2nsnc12)N1CCN(c2ccncc2)CC1 [ML012]
impact on contextual fear conditioning [2]: no negative impact on contextual fear conditioning
effect on pilocarpine-induced seizures [3]: reduced pilocarpine-induced seizures

SMILES: CN1[C@@H]2CC[C@H]1C[C@@H](OC(=O)C(CO)c1ccccc1)C2 (stereo partly drawn) [atropine, reference compound]
displacement of the orthosteric ligand [3H]NMS (M1 mAChR): compete with [^3H]NMS binding at M1

Now from value to compound, other results behind:

% ACh activity remaining (hM1; hM1): 38%
SMILES: Cc1ccnc(S(=O)(=O)N2CC(C(=O)N3CCN(c4ccncc4)CC3)C2)c1 [7e]

% ACh activity remaining (hM1; hM1): 41%
SMILES: O=C(C1CN(S(=O)(=O)c2ccc(Cl)cn2)C1)N1CCN(c2ccncc2)CC1 [7f]

displacement of the orthosteric ligand [3H]NMS (M1 mAChR): complete displacement
SMILES: O=C(C1CN(S(=O)(=O)c2ccc3c(c2)OCO3)C1)N1CCN(c2ccncc2)CC1 [7o]
slope of Schild regression (M1): 0.96 ± 0.02

% ACh activity remaining (hM1; hM1): 20%
SMILES: COc1ccc(S(=O)(=O)N2CC(C(=O)N3CCN(c4ccncc4)CC3)C2)cn1 [7t]

% ACh activity remaining (hM1; hM1): 40%
SMILES: O=C(C1CN(S(=O)(=O)c2ccc(C(F)(F)F)nc2)C1)N1CCN(c2ccncc2)CC1 [7u]

fold increase in potency (hM1; hM1, relative to ML012): 8 fold
SMILES: O=C(C1CN(S(=O)(=O)c2ccc3c(c2)CCO3)C1)N1CCN(c2ccncc2)CC1 [7v]

displacement of the orthosteric ligand [3H]NMS (M1 mAChR): complete displacement
predicted hepatic clearance (CLHEP) ([1]; predicted from microsome intrinsic clearance): 42.3 mL/min/kg
CLint scaled ([1]; rat, hepatic microsomes): 107 mL/min/kg
selectivity at rat M1 compared to M2-5 (rat (r) M1-5 receptors): selectively antagonize M1
SMILES: O=C(C1CN(S(=O)(=O)c2cccc3cnccc23)C1)N1CC2CN(c3ccncc3)CC2C1 (stereo not drawn) [12a]
slope of Schild regression (M1): 0.94 ± 0.01

Reference: article PMC3883446 (Bioorganic & medicinal chemistry letters, 2012)
